Data on one molecule can be found in ChEMBL document CHEMBL3638917, “Triazine derivatives” (2015).

By IC50 is commonly meant the concentration that inhibits the measured activity by half.

The target of this assay is T1, cAMP and cAMP-inhibited cGMP 3',5'-cyclic phosphodiesterase 10A (Rattus norvegicus, UniProt Q9QYJ6).
T1 sequence (Q9QYJ6 whole entry): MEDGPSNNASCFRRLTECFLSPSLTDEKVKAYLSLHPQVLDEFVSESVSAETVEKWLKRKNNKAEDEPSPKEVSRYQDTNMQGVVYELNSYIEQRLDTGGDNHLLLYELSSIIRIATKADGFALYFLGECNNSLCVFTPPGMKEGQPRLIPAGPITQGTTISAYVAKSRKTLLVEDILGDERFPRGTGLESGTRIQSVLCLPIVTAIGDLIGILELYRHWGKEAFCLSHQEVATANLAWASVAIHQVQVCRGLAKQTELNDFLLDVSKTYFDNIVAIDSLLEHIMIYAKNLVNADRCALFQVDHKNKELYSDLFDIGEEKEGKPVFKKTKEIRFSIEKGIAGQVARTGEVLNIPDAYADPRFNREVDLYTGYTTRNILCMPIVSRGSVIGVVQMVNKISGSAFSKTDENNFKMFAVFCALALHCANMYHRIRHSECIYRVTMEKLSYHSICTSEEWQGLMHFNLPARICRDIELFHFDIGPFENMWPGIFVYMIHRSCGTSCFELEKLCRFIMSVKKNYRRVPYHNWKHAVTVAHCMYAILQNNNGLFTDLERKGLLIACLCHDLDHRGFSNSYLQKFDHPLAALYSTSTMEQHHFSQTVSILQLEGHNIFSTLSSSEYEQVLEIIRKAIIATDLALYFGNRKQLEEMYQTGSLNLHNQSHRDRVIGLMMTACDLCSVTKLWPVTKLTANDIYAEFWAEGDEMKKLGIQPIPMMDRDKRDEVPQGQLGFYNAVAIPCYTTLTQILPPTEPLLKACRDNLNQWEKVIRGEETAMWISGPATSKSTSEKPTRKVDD
Briefly: The products of Examples 1-175 were tested in the assay described below.PDE10 activity was measured using a scintillation assay (SPA-based method) similar to that previously described by Seeger, T. F. et al., Brain Research 985 (2003) 113-126. The compounds' relative activity as PDE10 inhibitors was investigated by assaying a fixed amount of enzyme in the presence of the test compound and low substrate concentration (cAMP) such that an IC50 could be determined. […] The assay is performed in a 384-well format with 50 uL assay buffer (50 mM TRIS pH 7.5; 1.3 mM MgCl2; 0.01% Brij) containing enough PDE10.

Regarding `CCc1nn(C)c2c1CN(c1ncnn3c(C)nc(-c4cccc(OC)c4)c13)CC2`, the IC50 stood at 2.7 nM.
